Test results reported in patent US8192962B2, “Processes for detecting toxic substances” (Daikin Industries, Ltd., priority 2001, dated 2012).

Tested on: Mitochondria-located protein genes
Assay: DNA chip mRNA expression in yeast, mitochondria-located protein genes (Table 2)
Type: cell-based, Saccharomyces cerevisiae S288C
Details: cells incubated two hours with the chemical substance
Procedure, shortened: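 S. cerevisiae S288C grown at 25° C in YPD were exposed in log phase for two hours to one toxic chemical at a growth-inhibiting, non-lethal concentration; untreated cells served as control. Poly(A) mRNA was reverse-transcribed with Cy3/Cy5-dUTP and hybridized to a whole-genome yeast DNA chip at 65° C for over 12 hours; values are fluorescence ratios versus untreated.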

## CCCCCCCCCCCCc1ccc(S(=O)(=O)[O-])cc1.[Na+] [(17), sodium dodecylbenzosulfonate]
Yeast gene YJR121W
  The level of expressed mRNA in the presence of chemical substance/The level of expressed mRNA in the absence of chemical substance: 1.1
Yeast gene YKL003C
  The level of expressed mRNA in the presence of chemical substance/The level of expressed mRNA in the absence of chemical substance: 1.0
Yeast gene YKL016C
  The level of expressed mRNA in the presence of chemical substance/The level of expressed mRNA in the absence of chemical substance: 1.0
Yeast gene YKL141W
  The level of expressed mRNA in the presence of chemical substance/The level of expressed mRNA in the absence of chemical substance: 0.9
Yeast gene YKL142W
  The level of expressed mRNA in the presence of chemical substance/The level of expressed mRNA in the absence of chemical substance: 2.4
Yeast gene YKL148C
  The level of expressed mRNA in the presence of chemical substance/The level of expressed mRNA in the absence of chemical substance: 0.8
Yeast gene YKL170W
  The level of expressed mRNA in the presence of chemical substance/The level of expressed mRNA in the absence of chemical substance: 1.1
Yeast gene YKL194C
  The level of expressed mRNA in the presence of chemical substance/The level of expressed mRNA in the absence of chemical substance: 1.1
Yeast gene YKR066C
  The level of expressed mRNA in the presence of chemical substance/The level of expressed mRNA in the absence of chemical substance: 0.9
Yeast gene YLL041C
  The level of expressed mRNA in the presence of chemical substance/The level of expressed mRNA in the absence of chemical substance: 1.1
Yeast gene YLR038C
  The level of expressed mRNA in the presence of chemical substance/The level of expressed mRNA in the absence of chemical substance: 1.2
Yeast gene YLR259C
  The level of expressed mRNA in the presence of chemical substance/The level of expressed mRNA in the absence of chemical substance: 0.8
Yeast gene YLR295C
  The level of expressed mRNA in the presence of chemical substance/The level of expressed mRNA in the absence of chemical substance: 0.9
Yeast gene YLR304C
  The level of expressed mRNA in the presence of chemical substance/The level of expressed mRNA in the absence of chemical substance: 0.5
Yeast gene YLR348C
  The level of expressed mRNA in the presence of chemical substance/The level of expressed mRNA in the absence of chemical substance: 1.1
Yeast gene YLR395C
  The level of expressed mRNA in the presence of chemical substance/The level of expressed mRNA in the absence of chemical substance: 1.2
Yeast gene YML054C
  The level of expressed mRNA in the presence of chemical substance/The level of expressed mRNA in the absence of chemical substance: 1.1
Yeast gene YML120C
  The level of expressed mRNA in the presence of chemical substance/The level of expressed mRNA in the absence of chemical substance: 1.0
Yeast gene YML129C
  The level of expressed mRNA in the presence of chemical substance/The level of expressed mRNA in the absence of chemical substance: 1.3
Yeast gene YMR023C
  The level of expressed mRNA in the presence of chemical substance/The level of expressed mRNA in the absence of chemical substance: 1.1
Yeast gene YMR035W
  The level of expressed mRNA in the presence of chemical substance/The level of expressed mRNA in the absence of chemical substance: 2.2
Yeast gene YMR083W
  The level of expressed mRNA in the presence of chemical substance/The level of expressed mRNA in the absence of chemical substance: 0.9
Yeast gene YMR089C
  The level of expressed mRNA in the presence of chemical substance/The level of expressed mRNA in the absence of chemical substance: 0.9
Yeast gene YMR152W
  The level of expressed mRNA in the presence of chemical substance/The level of expressed mRNA in the absence of chemical substance: 1.5
Yeast gene YMR203W
  The level of expressed mRNA in the presence of chemical substance/The level of expressed mRNA in the absence of chemical substance: 0.8
Yeast gene YMR267W
  The level of expressed mRNA in the presence of chemical substance/The level of expressed mRNA in the absence of chemical substance: 0.9
Yeast gene YNL055C
  The level of expressed mRNA in the presence of chemical substance/The level of expressed mRNA in the absence of chemical substance: 1.2
Yeast gene YNL071W
  The level of expressed mRNA in the presence of chemical substance/The level of expressed mRNA in the absence of chemical substance: 1.0
Yeast gene YNL073W
  The level of expressed mRNA in the presence of chemical substance/The level of expressed mRNA in the absence of chemical substance: 0.8
Yeast gene YNL104C
  The level of expressed mRNA in the presence of chemical substance/The level of expressed mRNA in the absence of chemical substance: 0.9
Yeast gene YNL256W
  The level of expressed mRNA in the presence of chemical substance/The level of expressed mRNA in the absence of chemical substance: 0.6
Yeast gene YOL096C
  The level of expressed mRNA in the presence of chemical substance/The level of expressed mRNA in the absence of chemical substance: 1.2
Yeast gene YOR020C
  The level of expressed mRNA in the presence of chemical substance/The level of expressed mRNA in the absence of chemical substance: 1.4
Yeast gene YOR037W
  The level of expressed mRNA in the presence of chemical substance/The level of expressed mRNA in the absence of chemical substance: 1.2
Yeast gene YOR100C
  The level of expressed mRNA in the presence of chemical substance/The level of expressed mRNA in the absence of chemical substance: 0.9
Yeast gene YOR130C
  The level of expressed mRNA in the presence of chemical substance/The level of expressed mRNA in the absence of chemical substance: 1.5
Yeast gene YOR142W
  The level of expressed mRNA in the presence of chemical substance/The level of expressed mRNA in the absence of chemical substance: 0.9
Yeast gene YOR150W
  The level of expressed mRNA in the presence of chemical substance/The level of expressed mRNA in the absence of chemical substance: 0.9
Yeast gene YOR176W
  The level of expressed mRNA in the presence of chemical substance/The level of expressed mRNA in the absence of chemical substance: 1.2
Yeast gene YOR187W
  The level of expressed mRNA in the presence of chemical substance/The level of expressed mRNA in the absence of chemical substance: 0.8
Yeast gene YOR316C
  The level of expressed mRNA in the presence of chemical substance/The level of expressed mRNA in the absence of chemical substance: 0.8
Yeast gene YPL040C
  The level of expressed mRNA in the presence of chemical substance/The level of expressed mRNA in the absence of chemical substance: 0.8
Yeast gene YPL134C
  The level of expressed mRNA in the presence of chemical substance/The level of expressed mRNA in the absence of chemical substance: 1.3
Yeast gene YPL135W
  The level of expressed mRNA in the presence of chemical substance/The level of expressed mRNA in the absence of chemical substance: 1.5
Yeast gene YPL215W
  The level of expressed mRNA in the presence of chemical substance/The level of expressed mRNA in the absence of chemical substance: 1.0
Yeast gene YPL262W
  The level of expressed mRNA in the presence of chemical substance/The level of expressed mRNA in the absence of chemical substance: 1.1
Yeast gene YPR024W
  The level of expressed mRNA in the presence of chemical substance/The level of expressed mRNA in the absence of chemical substance: 1.1
Yeast gene YPR037C
  The level of expressed mRNA in the presence of chemical substance/The level of expressed mRNA in the absence of chemical substance: 1.2
Yeast gene YPR047W
  The level of expressed mRNA in the presence of chemical substance/The level of expressed mRNA in the absence of chemical substance: 1.0
Yeast gene YPR134W
  The level of expressed mRNA in the presence of chemical substance/The level of expressed mRNA in the absence of chemical substance: 1.0
